We go through three compounds from ChEMBL document CHEMBL1148564, “Synthesis and interactions of 7-deoxy-, 10-deacetoxy, and 10-deacetoxy-7-deoxypaclitaxel with NCI/ADR-RES cancer cells and bovine brain microvessel endothelial cells” (Bioorg Med Chem Lett, 2006).

Assay [1] has as its target T1, Tubulin (Homo sapiens) (UniProt P68371+Q9H4B7+P0DPH7+P68366+Q13509+Q71U36+P04350+Q3ZCM7+P07437+P68363+Q9BQE3+Q6PEY2+Q13885+Q9BVA1+Q9BUF5). The experiment in a line: Effect on tubulin polymerization by tubulin assembly assay relative to paclitaxel. Type of assay: protein-complex assay.
For assay [2], the system named is MCF7. Kind of assay: Antiproliferative activity against MCF7 breast cancer cell line relative to paclitaxel. Type of assay: functional, Homo sapiens.
Assay [3] deals with T1, Tubulin (Homo sapiens). The experiment in a line: Antiproliferative activity against NCI/ADR-RES […] cancer cell line relative to paclitaxel. Type of assay: functional, cell-based.

Each structure is given as a SMILES string.

For the compound `CC(=O)O[C@H]1C(=O)[C@]2(C)CC[C@H]3OC[C@@]3(OC(C)=O)[C@H]2[C@H](OC(=O)c2ccccc2)[C@]2(O)C[C@H](OC(=O)[C@H](O)[C@@H](NC(=O)c3ccccc3)c3ccccc3)C(C)=C1C2(C)C`, the Ratio ED50 in assay [1] came to 1.4; in assay [2] it was 30; in assay [3], 1.
Regarding `CC(=O)O[C@@]12CO[C@@H]1CC[C@@]1(C)C(=O)CC3=C(C)[C@@H](OC(=O)[C@H](O)[C@@H](NC(=O)c4ccccc4)c4ccccc4)C[C@@](O)([C@@H](OC(=O)c4ccccc4)[C@H]21)C3(C)C`, the Ratio ED50 in assay [1] came to 2; in assay [2], 9; in assay [3] it was 0.21.
With `CC(=O)O[C@@]12CO[C@@H]1C[C@H](O)[C@@]1(C)C(=O)CC3=C(C)[C@@H](OC(=O)[C@H](O)[C@@H](NC(=O)c4ccccc4)c4ccccc4)C[C@@](O)([C@@H](OC(=O)c4ccccc4)[C@H]21)C3(C)C`, the Ratio ED50 was determined as 2.2 in assay [1], 0.87 in assay [2] and 0.79 in assay [3].
